Data from paper PMC8341946, “Wheat pathogen Zymoseptoria tritici N-myristoyltransferase inhibitors: on-target antifungal activity and an unusual metabolic defense mechanism” (RSC Chemical Biology, 2020).
pEC50, pIC50, pKd: −log10 of the molar value. Entries after “also recorded” stand apart in the source; their conditions may differ. Like-named read-outs stand apart in the source and are kept apart here.

How the values were obtained:
ZtNMTΔ99 [1] = molecular target: T1, ZtNMTΔ99 (Zymoseptoria tritici, UniProt F9XBB7); assay: ZtNMT IC50 assay (CPM, enzymatic); type: biochemical
T1 sequence (F9XBB7 entry or part of it, stated change not applied): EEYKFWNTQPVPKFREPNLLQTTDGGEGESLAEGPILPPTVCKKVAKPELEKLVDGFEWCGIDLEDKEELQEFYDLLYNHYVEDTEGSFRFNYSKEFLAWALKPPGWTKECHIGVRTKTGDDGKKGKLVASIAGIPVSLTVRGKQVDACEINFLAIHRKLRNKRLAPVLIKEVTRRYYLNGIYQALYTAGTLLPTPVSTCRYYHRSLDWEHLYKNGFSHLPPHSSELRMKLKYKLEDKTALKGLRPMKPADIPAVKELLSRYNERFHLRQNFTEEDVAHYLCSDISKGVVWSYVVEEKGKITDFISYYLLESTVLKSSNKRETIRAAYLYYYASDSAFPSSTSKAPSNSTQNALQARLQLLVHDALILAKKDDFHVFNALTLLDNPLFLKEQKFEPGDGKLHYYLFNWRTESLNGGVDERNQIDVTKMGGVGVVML
Text: As the peptide substrate we used an octapeptide derived from the N-terminus of F9X1I2 (Z. tritici predicted homolog of ADP-ribosylation factor 1, ARF1), which we hypothesized would be natively myristoylated in vivo.
Fig. 1 ZtNMT enzymatic activity and structure. […] The CPM reagent enables fluorogenic readout of the reaction rate based on the generation of coenzyme A thiol. […] (D) ZtNMT homology model generated using Swiss Model[26] based on a reported A. fumigatus NMT X-Ray structure 4UWI[27] was aligned to HsNMT1 (PDB: 5MU6, in transparent grey). […] (E) A map of ligand interactions between docked IMP-1088 and its induced fit generated ZtNMT receptor protein residues.
The assay was adapted from a previous publication.[25] […] Accumulation of fluorescence signal at 470 nm was measured at one-minute intervals during the first 20 minutes of the reaction. Rates of the enzymatic reaction were calculated from the linear range of the resulting fluorescence over time curve using GraphPad Prizm 5. Then, sigmoidal dose–response (variable curve) fitting was applied to the data to obtain IC50 values. The assay was performed with at least 2 replicates, mean and confidence intervals are reported.

HsNMT1 [2] = details: cited from earlier work; for pIC50: Table S1, ref SI refs 1-7 as given with each inhibitor name; for Ki: Table S1, cells marked (Ki), ref SI refs 3, 5, 6 as given with each inhibitor name, read-out: HsNMT1 IC50 (µM), value marked (Ki)
Z. tritici culture = Z. tritici culture viability after 4 h treatment (microscope); type: cell-based, Zymoseptoria tritici; details: for culture phenotype under microscope: 4 h; for effect on cell viability: 4 h treatment, logarithmic growth phase
Z. tritici = assay: Anti-proliferative EC50 assay (MTS viability); type: cell-based, Zymoseptoria tritici
ZtNMTΔ99 [3] = molecular target: T1, ZtNMTΔ99; type: biochemical; details: in the presence of 32 μM myristoyl-CoA; read-out: KM(peptide)
Protocol: ZtNMT characterization. KM and Vmax constants measurements were performed at two
ZtNMT concentrations: 100 ng/ml and 200 ng/ml.
B) ZtARF1 Km and Vmax measured
The kinetic constants for both NMT substrates in

[4] = tested on: NMT activity in live Z. tritici; assay: YnMyr tagging in live Z. tritici, in-gel fluorescence
Protocol: Fig. 2 Inhibition and assessment of myristoylation in vivo. (A) Generalized workflow for identification and quantification of myristoylated proteins. Cells were treated with YnMyr in culture, and cell lysates ligated to multifunctional reagents bearing a TAMRA dye for fluorescent in-gel imaging and/or biotin for affinity enrichment and analysis by proteomics.
YnMyr was used to measure the effect of inhibitor on NMT activity in live Z. tritici.

[5] = tested on: Z. tritici whole proteome; assay: TMT-based proteomics of the whole lysate after NMT inhibition; type: cell-based, Zymoseptoria tritici; details: 8-64 μM, 4 h
Protocol: These changes reflect the acute response mounted by the fungus in response to compound and are relatively substantial considering that they occur following only 4 hours of inhibitor treatment. Limited annotation of Z. tritici genes[43] prompted us to undertake an in-depth analysis using NCBI BLAST+[39] to find closest homologs in S. cerevisiae, one of the most well-annotated yeast genomes available. We performed the search filtering out poor alignment matches (e-value > 0.01) and selected a single best match in the S. cerevisiae proteome for each Z. tritici protein.
Fig. 3 Response of Z. tritici to treatment with NMT inhibitors. […] Data is normalized by subtraction of the row mean values. (B) GO biological process and KEGG term enrichments using Fisher's exact test applied to proteins in Cluster W. (C) GO biological process term enrichments from Fisher's exact test applied to proteins in Cluster Z. GO annotation were assigned to Z. tritici proteins based on S. cerevisiae homolog (BLAST analysis) terms.
0.8 mg of each of the TMTsixplex™ Isobaric labels was dissolved in 41 μl anhydrous acetonitrile and then 8 μl of the solution of a reagent was added to 30 μl of corresponding peptide solution to start the labelling reaction. The solution was stirred at room temperature for 1.5 h. […]

HsNMT1 [6] = molecular target: HsNMT1; parameters: method as in PMID 29760414; details: estimated; cited from earlier work
[7] = tested on: Z. tritici myristoylated proteome; assay: TMT-based proteomics of myristate enriched proteins after NMT inhibition; type: cell-based, Zymoseptoria tritici
[8] = Table S1, enzymatic CPM assay, read-out: IC50
[9] = Table S1, viability MTS assay, read-out: EC50

| Molecule | pIC50 (ZtNMTΔ99 [1]; [8]) | pIC50 (HsNMT1 [2]) | also measured |
| --- | --- | --- | --- |
| CNCc1nn(C)c2ccc(-c3cccc(F)c3OCCc3c(C)nn(C)c3C)cc12 [IMP-1036] | 7.52 | 7.80 | – |
| Cc1nn(C)c(C)c1CCOc1cc(F)ccc1-c1ccc2nnc(C3CCCN3)n2c1 (stereo not drawn) [IMP-1090] | 4.66 | 5.59 | – |
| CNCc1nnc2ccc(-c3ccc(F)cc3OCCc3c(C(=O)N(C)C)nn(C)c3C)cn12 [IMP-1094] | 7.07 | 8.15 | – |
| N[C@H](CC(=O)N1C[C@H](CO)[C@@H](c2ccc(Cl)c(NC(=O)Cc3ccc(F)cc3)c2)C1)Cc1ccc(Cl)cc1 [IMP-162] | – | – | culture phenotype under microscope (Z. tritici culture; 24 μM and 48 μM): phenotype consistent with cell death; culture phenotype under microscope (Z. tritici culture; 96 μM): most cells appear dead; effect on cell viability (Z. tritici culture): kill Z. tritici culture; pEC50 (Z. tritici; Zymoseptoria tritici, Fig. 1B, Z. tritici cell viability, MTS, 40 h, read-out: EC50): ~4.70; pEC50 (Z. tritici; Zymoseptoria tritici, Table S1, viability MTS assay, read-out: EC50): 4.74; pIC50 (ZtNMTΔ99 [1]): 5.72 |
| CNCCc1cnc2ccc(-c3ccc(F)cc3OCCc3c(C(=O)N(C)C)nn(C)c3C)cn12 [IMP-1124] | 7.89 | 9.15 | – |
| NH2-GLTFSKLF-OH (H-GLTFSKLF-OH) [ZtARF1 peptide, octapeptide substrate derived from the N-terminus of F9X1I2 (Z. tritici ARF1 homolog)] | – | – | Km (ZtNMTΔ99 [3]): 2.73 µM |
| CNCc1nnc2ccc(-c3ccc(F)cc3OCCc3c(C(=O)N4CCCC4)nn(C)c3C)cn12 [IMP-1112] | 6.38 | 7.70 | – |
| Cc1nn(C)c(C)c1Cc1nnc(-c2cc(Cl)ccc2OC2CCNCC2)o1 [IMP-329] | 6.06 | – | pEC50 (Z. tritici; [9]): 3.55; Ki (HsNMT1 [2]): 0.02 µM |
| Cc1nn(C)c(C)c1CCOc1c(F)cccc1-c1ccc2c(c1)c(CN(C)C)nn2C [IMP-1031] | 7.80 | 8.34 | pEC50 (Z. tritici; [9]): 4.29 |
| Cc1nn(C)c(C)c1CCOc1cc(F)ccc1-c1ccc2nnc(C3CNC3)n2c1 [IMP-1091] | 5.68 | 7.25 | – |
| CNCc1cnc2ccc(-c3ccc(F)cc3OCCc3c(C)nn(C)c3C)cn12 [IMP-1097] | 6.70 | 8.72 | – |
| Cc1nn(C)c(C)c1CCOc1c(F)cccc1-c1ccc2c(c1)c(CN)nn2C [IMP-1034] | 7.49 | 8.30 | – |
| COc1cc(CCOC(=O)c2sc3ccccc3c2OC2CCNCC2)cc(OC)c1 [IMP-277] | < 3.52 | – | Ki (HsNMT1 [2]): 0.031 µM |
| CNCc1nn(C)c2ccc(-c3ccc(F)c(F)c3OCCc3c(C)nn(C)c3C)cc12 [IMP-1089] | 8.17 | > 9.00 | pEC50 (Z. tritici; [9]): 4.34 |
| CNCCc1cnc2ccc(-c3ccc(F)cc3OCCc3c(CO)nn(C)c3C)cn12 [IMP-1185] | 5.40 | 7.59 | – |
| CNCc1cnc2ccc(-c3ccc(F)cc3OCCc3c(C(N)=O)nn(C)c3C)cn12 [IMP-1179] | 6.55 | 8.25 | – |
| Cc1c(CCOc2cc(F)ccc2-c2ccc3ncc(CN(C)C)n3c2)c(C(=O)N(C)C)nn1C [IMP-1134] | > 9.00 | > 9.00 | pEC50 (Z. tritici; [9]): 4.57 |
| Cc1nn(C)c(C)c1CCOc1c(-c2ccc3c(c2)c(CN(C)C)nn3C)ccc(F)c1F [IMP-1088] | – | > 9.00 | effect on cell viability (Z. tritici culture): no detectable effect on cell viability; TC50 (half maximal concentration of YnMyr tagging) ([4]; 4 h, intensity of most prominent band (ca. 20 kDa), in-gel fluorescence): 14000 ± 1000 nM; effect on YnMyr labeling (in-gel band intensities) ([4]; 4 h with compound and YnMyr, TAMRA fluorescence): dose-dependently reduces labeling; also recorded: reduced YnMyr tagging; pEC50 (Z. tritici; Fig. 1B, Z. tritici cell viability, MTS, 40 h): 4.64; pEC50 (Z. tritici; Zymoseptoria tritici, 40 h, Fig. 1B, Z. tritici cell viability, MTS): ~4.70; whole proteome response [5]: significant dose-dependent changes in the expression of multiple proteins; pIC50 (ZtNMTΔ99 [1]): 7.92; pKd (HsNMT1 [6]): > 9.70; YnMyr tagging of myristoylated proteins ([7]; 64 μM versus DMSO, 4 h): reduced tagging; TC50 (concentration of half-tagging with YnMyr) ([7]; first subset of myristoylated proteins in Cluster 1): 8000 to 16000 nM; TC50 (concentration of half-tagging with YnMyr) ([7]; second subset of myristoylated proteins in Cluster 1): 16000 to 32000 nM; TC50 (concentration of half-tagging with YnMyr) ([7]; third subset of myristoylated proteins in Cluster 1): 32000 to 64000 nM |
| Cc1c(CCOc2cc(F)ccc2-c2ccc3nnc(C4CNC4)n3c2)c(C(=O)N(C)C)nn1C [IMP-1100] | 7.80 | 9.00 | pEC50 (Z. tritici; [9]): < 3.30 |
| Cc1nn(C)c(C)c1CCOc1cc(F)ccc1-c1ccc2[nH]nc(CN(C)C)c2c1 [IMP-917] | 6.80 | 7.89 | – |
| Cc1nn(C)c(C)c1CCOc1c(F)cccc1-c1ccc2ncc(CN(C)C)n2c1 [IMP-1131] | 5.62 | 8.62 | – |
| CNCc1nnc2ccc(-c3ccc(F)cc3OCCc3c(C(F)(F)F)nn(C)c3C)cn12 [IMP-1111] | 6.15 | 8.19 | – |
| CNCc1cnc2ccc(-c3ccc(F)cc3OCCc3c(C#N)nn(C)c3C)cn12 [IMP-1195] | > 9.00 | > 9.00 | – |
| CNCc1nnc2ccc(-c3ncccc3OCCc3c(C)nn(C)c3C)cn12 [IMP-1093] | < 3.52 | 5.13 | – |
| Cc1nn(C)c(C)c1NS(=O)(=O)c1c(Cl)cc(-c2ccnc(N3CCNCC3)c2)cc1Cl [IMP-366, reference compound] | – | – | pEC50 (Z. tritici; Zymoseptoria tritici, Table S1, viability MTS assay): 3.96; pIC50 (ZtNMTΔ99 [1]): 7.30 |
